# Structures can show the parent of a compound that is named as a salt.
# Assays:
# [1] = Sensory evaluation of malodor prevention ability of group A against hexanal odor; design: species or system people; conditions: scale 0 (no malodor felt) to 10 (very strong); hexanal alone rated 8; 10 μL hexanal diluted 100 times + 1 μL test substance, 1 hour room temperature; average of panel of 20
# Method: The malodor prevention ability of a test substance was confirmed by sensory evaluation. As malodor, 10 μL of hexanal diluted 100 times with dipropylene glycol and 1 μL of the test substance were dropped into a cotton ball, which was charged into a plastic bottle. The bottle was left standing at room temperature for 1 hour to allow odor molecules to sufficiently volatilize inside the bottle. A sensory evaluation test was performed by a panel of 20 people, a malodor intensity when the malodor was dropped alone was rated as 8, and the odor intensity when the test substance was mixed was evaluated from 0 (no malodor was felt) to 10 (very strong malodor was felt). An average value was calculated from the obtained numerical values.
# [2] = Sensory evaluation of fragrance compositions against model body odor; design: species or system people; conditions: each malodor (model body odor, model nursing care odor); substance in floral base fragrance composition
# Method: TEC in the tables indicates triethyl citrate. […] Note that, a grouping method and the ratio within the groups are optional and are not limited by Table 9. Floral bases in Table 2 to Table 8 were prepared according to Table 10.
# The malodor prevention ability of these fragrance compositions was confirmed by sensory evaluation. As for malodor, model body odor and model nursing care odor containing hexanal as one of key components were prepared according to Table 11 and Table 12. 10 μL of each model malodor and 1 μL of the fragrances 1 to 60 as test substances were dropped into a cotton ball, which was charged into a plastic bottle. The bottle was left standing at room temperature for 30 minutes to allow odor molecules to sufficiently volatilize inside the bottle. A sensory evaluation test was performed by a panel of 20 people, the discomfort when the malodor was dropped alone was rated as −3, and the discomfort when the test substance was mixed was evaluated from −4 (extremely discomfortable) to +4 (extremely comfortable). An average value was calculated from the obtained numerical values.
SMILES,Hexanal odor intensity [1],effect on reducing the discomfort due to malodor (in words) [2]
"CC(=CCC1CC=C(C)C1(C)C)CO (stereo not shown) [Hindinol, 2-methyl-4-(2,2,3-trimethyl-3-cyclopentenyl)-2-buten-1-ol]",3.9,reduced the discomfort due to each malodor
"CC1=CCC(C(C)C)C=C1 (stereo not shown) [Phellandrene, p-mentha-1,5-diene]",4.1,reduced the discomfort due to each malodor
"CCCC(O)CCC1C(C)CCCC1(C)C (stereo not shown) [Dextramber, 1-(2,2,6-trimethylcyclohexyl)hexan-3-ol]",3.0,reduced the discomfort due to each malodor
"CC(=O)C1(C)CC2=C(CCCC2(C)C)CC1C (stereo not shown) [Orbitone, 2-acetyl-2,3,8,8-tetramethyloctarine]",3.9,reduced the discomfort due to each malodor
"CC(=O)C(C)=CC1C(C)=CCCC1(C)C (stereo not drawn) [α-isomethylionone, 3-methyl-4-(2,6,6-trimethyl-2-cyclohexen-1-yl)-3-buten-2-one]",3.1,reduced the discomfort due to each malodor
"CCCCCC1C(=O)CCC1CC(=O)OC (stereo not shown) [Hedione, methyl (2-pentyl-3-oxo-cyclopentyl) acetate]",4.2,reduced the discomfort due to each malodor
"C=C(C)[C@@H]1CC[C@@H](C)C[C@H]1O [Isopulegol, isopulegol]",3.4,reduced the discomfort due to each malodor
"CC(C)[C@@H]1CC[C@@H](C)CC1=O [Menthone, reference compound]",6.9,–
"C=C(C)C1CC=C(C)C(=O)C1 (stereo not shown) [Carvone, reference compound]",7.1,–
CCOC(=O)C(C)C(C)S (stereo not shown) [ethyl 3-mercapto-2-methylbutyrate],3.1,reduced the discomfort due to each malodor
"CC(c1ccccc1)C1CC1C(C)(C)O (stereo not shown) [Pamplefix, 50% triethyl citrate solution, dimethyl-2-(1-phenylethyl)cyclopropylmethanol]",4.1,reduced the discomfort due to each malodor
"CC1CCC(C(C)C)C(OCC(O)CO)C1 (stereo not shown) [COOLACT 10, 3-(menthoxy)propane-1,2-diol]",3.3,–
"O=C1CCCC=CCCCCCCCCCC1 [Ambretone, 5-cyclohexadecenone]",3.5,reduced the discomfort due to each malodor
"CCOC(=O)C1C(C)CCCC1(C)C (stereo not shown) [Thesaron, ethyl 2,2,6-trimethylcyclohexane-1-carboxylate]",2.6,reduced the discomfort due to each malodor

# Reference: US20240164998A1, “FRAGRANCE COMPOSITION” (TAKASAGO INTERNATIONAL CORPORATION, priority 2022, published 2024)
